Measurements reported in US20210030646A1, “AN ANTIMICROBIAL COMPOSITION COMPRISING ESSENTIAL OIL AND ANTIMICROBIAL LIPID” (Conopco, Inc., d/b/a UNILEVER, priority 2017, published 2021).

System: P. acnes (ATCC 6919)
Test: ΣFIC assay against P. acnes (checkerboard MIC, alamar blue)
Assay type: cell-based, Propionibacterium acne (P. acnes)
Conditions: P. acnes ATCC 6919 in LB, anaerobic 37° C. 50 hours, lowest concentration giving complete growth inhibition; for MIC: Cutibacterium acnes, ATCC6919, single active alone, read-out: MIC (Minimum Inhibition Concentration)
Procedure: Synergistic interaction between the essential oil active and the AML compounds was determined using the ΣFIC assay against P. acnes. A brief description of the method is given below.
Methods: ΣFIC Assay Against P. acnes
P. acnes (ATCC 6919) is inoculated on Reinforced Clostridial Medium Agar plate (RCMA, solution A) and cultured anaerobically in an anaerobic jar at 37° C. for 72 to 96 hours. A single colony was cultured into Reinforced Clostridial Medium (RCM, solution B) and incubated anaerobically at 37° C. for 72 to 96 hours. Final cell density is adjusted to around 5×10^7 cells/ml by diluting using RCM. Then the inoculum is further diluted 1:1000 into Luria-Bertani medium (LB, solution C) to get around 5*10^4 cell/ml.
Essential oil active was serially diluted (2-fold) to prepare in a range of 10 to 10,000 ppm in the LB growth medium. The AML compound was serially diluted (2-fold) to prepare in a range of 15.6 to 1000 ppm for sapienic acid, and palmitoleic acid; and 2-125 ppm for other AMLs in the LB growth medium.
Binary combinations of essential oil and AML compound were prepared in 96-well plate by mixing 20 μl of essential oil solution with 20 μl of AML compound. The solution in each well were further mixed with 160 μl of P. acnes in LB. The final cell density in the testing plate is around 4*10^4 cell/ml, and the final concentration of actives in each well of the 96-well plate were shown below.
The fatty acid AML sapienic acid and palmitoleic acid compound concentrations (in ppm): 100, 50, 25, 12.5, 6.25, 3.13, 1.56, and 0. The sphingosine AML compound concentrations (in ppm): 12.5, 6.3, 3.1, 1.6, 0.8, 0.4, 0.2 and 0.
The plate was incubated anaerobically at 37° C. for 50 hours. Then 20 μl of alamar blue (0.01%) was added into each well with a further incubation aerobically for two to three days to observe the color change. Red color indicates microbial growth and the non-changing blue color indicates no growth. In addition, it was also confirmed that the testing compound alone will not cause color change of alamar blue with a control mixture without adding microbes.
The MIC is defined as the absolute lowest concentration of active that provides complete microbial growth inhibition as indicated by the blue color of alamar blue under the tested condition.
The differing behaviour of inhibitory antimicrobials in isolation and mixtures have been widely explored using the concept of the Fractional Concentration (FC) and Fractional Inhibitory Concentration (FIC). The parameter can be defined as follows: […]
These relationships can be expressed mathematically by summing the fractional MIC values for all the components present in the mixture to give the “fractional inhibition index”. There is no consistent approach in the academic or patent literature in defining precise limiting ΣFIC values that differentiate synergy from additivity or antagonism. In this study, we have adopted a liberal approach defining any binary mixture with ΣFIC<0.9 as showing evidence of synergistic behavior.
ΣFIC=FIC (component 1)+FIC (component 2)
ΣFIC=1 corresponds to additive microbial activity
ΣFIC>1 corresponds to antagonistic microbial activity
ΣFIC<0.9 corresponds to synergistic microbial activity
Based on the concentration range of the essential oil actives (0 to 1000 ppm) and the AML compound (0 to 100 ppm) at which the experiments were carried out, the ΣFIC of the combinations is given below in Table-1.

Structure (SMILES) | MIC | MIC (Minimum Inhibition Concentration) (single active alone)
CCCCCC/C=C\CCCCCCCC(=O)O [palmitoleic acid] | 1 µg/mL | –
Cc1ccc(C(C)C)c(O)c1 [thymol] | 62.5 µg/mL | –

More lines, now with the values ahead:

MIC | MIC (Minimum Inhibition Concentration) (single active alone) | Structure (SMILES)
0.2 µg/mL | – | CCCCCCCCCCCCCC[C@@H](O)[C@@H](O)[C@@H](N)CO [phytosphingosine]
0.4 µg/mL | – | CCCCCCCCCCCCC/C=C/[C@@H](O)[C@@H](N)CO [sphingosine]
– | 0.2 ppm | CCCCCCCCCCCCCCC[C@@H](O)[C@@H](N)CO [dihydrosphingosine]
